Source: US9290788B2, “Device for determining or studying the state of stimulation of the natural defences of plants or portions of plants” (Institut National De La Recherche Agronomique, priority 2010, dated 2016)

Tested on: 28 target genes (defense genes) in apple tree leaves
Test: Test 1: relative expression of the 28 defense genes (qPCR, ΔΔCt) in apple tree seedling leaves subjected to NDS treatments and abiotic stresses
Type: in vivo, apple tree seedlings (Golden Delicious)
Conditions: for Relative expression of ANS / Relative expression of PAL / Relative expression of PR-1 / Relative expression of PR-2 / Relative expression of PR-4 / Relative expression of PR-5 / Relative expression of PR-8 / Relative expression of PR-14 / Relative expression of PR-15: vs water control
[1] = +H2O2, J2, relative to water control
[2] = +H2O2, J3, relative to water control
[3] = +H2O2 (sprayed 24 hours after treatment), J2
[4] = +H2O2 (sprayed 24 hours after treatment), J3
[5] = −H2O2, J2, relative to water control
[6] = −H2O2, J3, relative to water control

With `CC/C=C\CC1C(=O)CCC1CC(=O)OC` (stereo not shown) [MeJA, methyl jasmonate] as the compound, how does the “Relative expression ACCO (log base 2)” value [1] read?
Its value is 3.48.

What about the “Relative expression APOX (log base 2)” value [1] of the same compound?
Its value is 1.87.

What about the “Relative expression CAD (log base 2)” value [1] of the same compound?
The value was 0.70.

What about the “Relative expression CHS (log base 2)” value [1] of the same compound?
Its value is 3.73.

And the “Relative expression CSL (log base 2)” value [1]?
The value was 2.26.

What about the “Relative expression CalS (log base 2)” value [1] of the same compound?
The value was 0.48.

And the “Relative expression DFR (log base 2)” value [1]?
Its value is 3.43.

And the “Relative expression EDS1 (log base 2)” value [1]?
Its value is −0.17.

And the “Relative expression EIN3 (log base 2)” value [1]?
The value was 2.54.

And the “Relative expression FPPS (log base 2)” value [1]?
The value was −0.07.

And the “Relative expression Far (log base 2)” value [1]?
The value was 0.74.

What about the “Relative expression GST (log base 2)” value [1] of the same compound?
The value was 0.47.

And the “Relative expression HMGR (log base 2)” value [1]?
The value was −0.38.

What about the “Relative expression JAR (log base 2)” value [1] of the same compound?
Its value is 0.73.

And the “Relative expression LOX2 (log base 2)” value [1]?
The value was 1.51.

What about the “Relative expression POX (log base 2)” value [1] of the same compound?
Its value is 2.84.

What about the “Relative expression PPO (log base 2)” value [1] of the same compound?
Its value is 0.80.

What about the “Relative expression Pect (log base 2)” value [1] of the same compound?
The value was −2.02.

And the “Relative expression WRKY (log base 2)” value [1]?
The value was −0.06.

What about the “Relative expression ACCO (log base 2)” value [2] of the same compound?
The value was 2.28.

What about the “Relative expression APOX (log base 2)” value [2] of the same compound?
Its value is 2.11.

What about the “Relative expression CAD (log base 2)” value [2] of the same compound?
Its value is 0.35.

What about the “Relative expression CHS (log base 2)” value [2] of the same compound?
Its value is 1.47.

And the “Relative expression CSL (log base 2)” value [2]?
The value was 1.46.

What about the “Relative expression CalS (log base 2)” value [2] of the same compound?
The value was 1.48.

What about the “Relative expression DFR (log base 2)” value [2] of the same compound?
Its value is 1.36.

What about the “Relative expression EDS1 (log base 2)” value [2] of the same compound?
Its value is 0.98.

What about the “Relative expression EIN3 (log base 2)” value [2] of the same compound?
Its value is 1.80.

What about the “Relative expression FPPS (log base 2)” value [2] of the same compound?
Its value is 0.43.

What about the “Relative expression Far (log base 2)” value [2] of the same compound?
The value was 0.39.

What about the “Relative expression GST (log base 2)” value [2] of the same compound?
Its value is 0.87.

And the “Relative expression HMGR (log base 2)” value [2]?
The value was 0.60.

What about the “Relative expression JAR (log base 2)” value [2] of the same compound?
The value was 1.61.

What about the “Relative expression LOX2 (log base 2)” value [2] of the same compound?
Its value is 1.99.

And the “Relative expression POX (log base 2)” value [2]?
Its value is 4.29.

What about the “Relative expression PPO (log base 2)” value [2] of the same compound?
Its value is 1.23.

And the “Relative expression Pect (log base 2)” value [2]?
The value was 2.16.

What about the “Relative expression WRKY (log base 2)” value [2] of the same compound?
Its value is 3.46.

What about the “Relative expression of ANS” value [3] of the same compound?
Its value is 3.29 log2.

And the “Relative expression of PAL” value [3]?
Its value is 3.36 log2.

And the “Relative expression of PR-1” value [3]?
The value was 0.40 log2.

What about the “Relative expression of PR-2” value [3] of the same compound?
Its value is 3.89 log2.

What about the “Relative expression of PR-4” value [3] of the same compound?
The value was 1.25 log2.

And the “Relative expression of PR-5” value [3]?
The value was −2.09 log2.

And the “Relative expression of PR-8” value [3]?
Its value is 1.41 log2.

What about the “Relative expression of PR-14” value [3] of the same compound?
The value was −0.64 log2.

What about the “Relative expression of PR-15” value [3] of the same compound?
Its value is 3.20 log2.

And the “Relative expression of ANS” value [4]?
Its value is 1.44 log2.

What about the “Relative expression of PAL” value [4] of the same compound?
The value was 2.01 log2.

And the “Relative expression of PR-1” value [4]?
The value was 2.84 log2.

And the “Relative expression of PR-2” value [4]?
The value was 0.68 log2.

What about the “Relative expression of PR-4” value [4] of the same compound?
The value was 2.84 log2.

And the “Relative expression of PR-5” value [4]?
Its value is −1.22 log2.

And the “Relative expression of PR-8” value [4]?
The value was 1.51 log2.

And the “Relative expression of PR-14” value [4]?
Its value is 3.68 log2.

What about the “Relative expression of PR-15” value [4] of the same compound?
Its value is 2.77 log2.

And the “Relative expression of ANS” value (−H2O2, J2)?
The value was 2.31 log2.

And the “Relative expression of PAL” value (−H2O2, J2)?
Its value is 3.17 log2.

And the “Relative expression of PR-1” value (−H2O2, J2)?
The value was 1.56 log2.

And the “Relative expression of PR-2” value (−H2O2, J2)?
Its value is 4.03 log2.

And the “Relative expression of PR-4” value (−H2O2, J2)?
Its value is 2.68 log2.

What about the “Relative expression of PR-5” value (−H2O2, J2) of the same compound?
Its value is −0.59 log2.

And the “Relative expression of PR-8” value (−H2O2, J2)?
Its value is 1.85 log2.

What about the “Relative expression of PR-14” value (−H2O2, J2) of the same compound?
Its value is 3.45 log2.

What about the “Relative expression of PR-15” value (−H2O2, J2) of the same compound?
The value was −0.19 log2.

And the “Relative expression of ANS” value (−H2O2, J3)?
Its value is 1.58 log2.

And the “Relative expression of PAL” value (−H2O2, J3)?
Its value is 1.66 log2.

What about the “Relative expression of PR-1” value (−H2O2, J3) of the same compound?
The value was 2.35 log2.

And the “Relative expression of PR-2” value (−H2O2, J3)?
The value was 3.69 log2.

And the “Relative expression of PR-4” value (−H2O2, J3)?
Its value is 2.63 log2.

And the “Relative expression of PR-5” value (−H2O2, J3)?
Its value is 1.49 log2.

And the “Relative expression of PR-8” value (−H2O2, J3)?
Its value is 1.00 log2.

And the “Relative expression of PR-14” value (−H2O2, J3)?
The value was 5.09 log2.

What about the “Relative expression of PR-15” value (−H2O2, J3) of the same compound?
Its value is 1.21 log2.

What about the “Relative expression ACCO (log base 2)” value [5] of the same compound?
The value was 1.92.

And the “Relative expression APOX (log base 2)” value [5]?
The value was −3.00.

What about the “Relative expression CAD (log base 2)” value [5] of the same compound?
Its value is 1.52.

And the “Relative expression CHS (log base 2)” value [5]?
Its value is 2.97.

What about the “Relative expression CSL (log base 2)” value [5] of the same compound?
The value was 2.29.

And the “Relative expression CalS (log base 2)” value [5]?
Its value is 0.05.

And the “Relative expression DFR (log base 2)” value [5]?
Its value is 2.92.

What about the “Relative expression EDS1 (log base 2)” value [5] of the same compound?
Its value is 1.91.

And the “Relative expression EIN3 (log base 2)” value [5]?
Its value is 3.82.

What about the “Relative expression FPPS (log base 2)” value [5] of the same compound?
The value was 0.00.

What about the “Relative expression Far (log base 2)” value [5] of the same compound?
Its value is 2.34.

What about the “Relative expression GST (log base 2)” value [5] of the same compound?
Its value is 1.00.

And the “Relative expression HMGR (log base 2)” value [5]?
Its value is 1.49.

And the “Relative expression JAR (log base 2)” value [5]?
The value was 1.25.

And the “Relative expression LOX2 (log base 2)” value [5]?
Its value is 1.60.

What about the “Relative expression POX (log base 2)” value [5] of the same compound?
Its value is 0.66.

And the “Relative expression PPO (log base 2)” value [5]?
The value was 1.28.

And the “Relative expression Pect (log base 2)” value [5]?
Its value is 0.98.

What about the “Relative expression WRKY (log base 2)” value [5] of the same compound?
The value was 1.25.

And the “Relative expression ACCO (log base 2)” value [6]?
The value was 1.96.

And the “Relative expression APOX (log base 2)” value [6]?
The value was 0.95.

What about the “Relative expression CAD (log base 2)” value [6] of the same compound?
Its value is 0.01.

And the “Relative expression CHS (log base 2)” value [6]?
Its value is 1.22.

And the “Relative expression CSL (log base 2)” value [6]?
The value was 1.81.

And the “Relative expression CalS (log base 2)” value [6]?
Its value is 1.14.

What about the “Relative expression DFR (log base 2)” value [6] of the same compound?
The value was 1.55.

What about the “Relative expression EDS1 (log base 2)” value [6] of the same compound?
The value was 1.22.

And the “Relative expression EIN3 (log base 2)” value [6]?
The value was 1.22.

And the “Relative expression FPPS (log base 2)” value [6]?
The value was 0.13.

What about the “Relative expression Far (log base 2)” value [6] of the same compound?
Its value is 1.51.

What about the “Relative expression GST (log base 2)” value [6] of the same compound?
The value was −0.15.

What about the “Relative expression HMGR (log base 2)” value [6] of the same compound?
The value was 1.16.

And the “Relative expression JAR (log base 2)” value [6]?
Its value is 0.63.

What about the “Relative expression LOX2 (log base 2)” value [6] of the same compound?
The value was 1.45.

What about the “Relative expression POX (log base 2)” value [6] of the same compound?
The value was 3.86.

What about the “Relative expression PPO (log base 2)” value [6] of the same compound?
The value was 0.78.

What about the “Relative expression Pect (log base 2)” value [6] of the same compound?
The value was 3.87.

What about the “Relative expression WRKY (log base 2)” value [6] of the same compound?
The value was 0.85.
